Results published in ChEMBL document CHEMBL5291721, “A preclinical secondary pharmacology resource illuminates target-adverse drug reaction associations of marketed drugs” (Nat Commun, 2023).

Columns and labels:
[1] = molecular target: Adenosine receptor A2a (Homo sapiens, UniProt P29274)
[2] = molecular target: T1, Alpha-2A adrenergic receptor (Homo sapiens, UniProt P08913); type: functional, cell-based
T1 sequence (P08913 whole entry): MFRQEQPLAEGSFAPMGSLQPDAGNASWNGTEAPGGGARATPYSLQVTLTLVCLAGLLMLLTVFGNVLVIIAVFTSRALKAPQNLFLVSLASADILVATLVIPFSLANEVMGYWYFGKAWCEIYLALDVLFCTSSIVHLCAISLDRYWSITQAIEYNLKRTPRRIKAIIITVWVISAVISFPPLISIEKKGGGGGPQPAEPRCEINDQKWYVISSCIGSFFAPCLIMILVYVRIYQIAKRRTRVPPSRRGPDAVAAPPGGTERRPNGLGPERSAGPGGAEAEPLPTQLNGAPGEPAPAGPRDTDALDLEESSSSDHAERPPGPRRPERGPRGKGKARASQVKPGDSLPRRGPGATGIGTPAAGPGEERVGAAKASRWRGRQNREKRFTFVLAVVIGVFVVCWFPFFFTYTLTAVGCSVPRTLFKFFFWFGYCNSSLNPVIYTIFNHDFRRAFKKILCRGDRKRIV

[3] = molecular target: T2, Type-1 angiotensin II receptor (Homo sapiens, UniProt P30556)
T2 sequence (P30556 whole entry): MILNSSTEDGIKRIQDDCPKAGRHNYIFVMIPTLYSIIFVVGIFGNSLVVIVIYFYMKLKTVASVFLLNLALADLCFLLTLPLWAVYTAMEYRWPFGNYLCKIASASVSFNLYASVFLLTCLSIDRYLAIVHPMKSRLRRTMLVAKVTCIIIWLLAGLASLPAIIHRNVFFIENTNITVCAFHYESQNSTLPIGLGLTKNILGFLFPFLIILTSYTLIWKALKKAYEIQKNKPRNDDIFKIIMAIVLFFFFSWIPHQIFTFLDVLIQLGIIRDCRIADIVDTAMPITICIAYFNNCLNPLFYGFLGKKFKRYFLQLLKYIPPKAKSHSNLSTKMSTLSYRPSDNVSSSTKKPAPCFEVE

[4] = molecular target: T3, Cholecystokinin receptor type A (Homo sapiens, UniProt P32238)
T3 sequence (P32238 whole entry): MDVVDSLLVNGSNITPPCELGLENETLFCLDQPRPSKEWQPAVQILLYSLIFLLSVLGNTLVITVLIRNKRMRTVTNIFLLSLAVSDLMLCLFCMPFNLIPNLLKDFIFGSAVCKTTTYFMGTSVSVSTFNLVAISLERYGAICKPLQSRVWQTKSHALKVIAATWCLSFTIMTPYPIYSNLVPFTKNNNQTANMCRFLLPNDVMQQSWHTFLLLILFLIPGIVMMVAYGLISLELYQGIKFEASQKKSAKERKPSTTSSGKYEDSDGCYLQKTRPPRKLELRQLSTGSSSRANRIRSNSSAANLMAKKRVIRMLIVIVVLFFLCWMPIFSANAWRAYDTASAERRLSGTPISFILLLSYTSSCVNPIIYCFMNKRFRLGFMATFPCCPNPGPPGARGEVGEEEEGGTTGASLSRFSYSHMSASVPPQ

[5] = molecular target: T4, Endothelin-1 receptor (Homo sapiens, UniProt P25101)
T4 sequence (P25101 whole entry): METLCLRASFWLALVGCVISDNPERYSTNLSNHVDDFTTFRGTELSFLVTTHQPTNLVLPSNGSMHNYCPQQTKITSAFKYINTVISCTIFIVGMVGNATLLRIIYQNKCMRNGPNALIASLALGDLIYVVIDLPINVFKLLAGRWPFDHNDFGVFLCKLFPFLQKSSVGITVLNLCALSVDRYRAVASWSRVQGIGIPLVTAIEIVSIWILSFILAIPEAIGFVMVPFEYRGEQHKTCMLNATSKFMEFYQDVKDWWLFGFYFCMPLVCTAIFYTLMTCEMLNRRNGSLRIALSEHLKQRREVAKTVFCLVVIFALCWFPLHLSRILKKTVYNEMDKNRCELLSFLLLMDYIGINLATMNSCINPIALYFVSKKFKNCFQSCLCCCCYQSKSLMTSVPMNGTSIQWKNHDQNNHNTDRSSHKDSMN

[6] = molecular target: T5, Neuropeptide Y receptor type 1 (Homo sapiens, UniProt P25929)
T5 sequence (P25929 whole entry): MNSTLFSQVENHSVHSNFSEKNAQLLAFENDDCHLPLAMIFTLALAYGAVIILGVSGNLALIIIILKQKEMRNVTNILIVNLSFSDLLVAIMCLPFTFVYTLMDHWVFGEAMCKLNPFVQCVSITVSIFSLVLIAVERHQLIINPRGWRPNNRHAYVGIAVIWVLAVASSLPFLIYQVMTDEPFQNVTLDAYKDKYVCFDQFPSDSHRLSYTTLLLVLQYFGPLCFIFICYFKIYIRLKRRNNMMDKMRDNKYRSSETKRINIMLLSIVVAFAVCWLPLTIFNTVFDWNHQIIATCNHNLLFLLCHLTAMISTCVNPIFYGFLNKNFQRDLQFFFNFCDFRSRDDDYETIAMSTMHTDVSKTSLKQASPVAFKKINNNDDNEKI

[7] = molecular target: 3',5'-cyclic-AMP phosphodiesterase 4D (Homo sapiens, UniProt Q08499); type: functional
[8] = molecular target: Sodium-dependent dopamine transporter (Homo sapiens, UniProt Q01959)
[9] = molecular target: D(3) dopamine receptor (Homo sapiens, UniProt P35462)
Note: assay procedure not described here.

Chain of Adenosine receptor A2a (P29274 whole entry): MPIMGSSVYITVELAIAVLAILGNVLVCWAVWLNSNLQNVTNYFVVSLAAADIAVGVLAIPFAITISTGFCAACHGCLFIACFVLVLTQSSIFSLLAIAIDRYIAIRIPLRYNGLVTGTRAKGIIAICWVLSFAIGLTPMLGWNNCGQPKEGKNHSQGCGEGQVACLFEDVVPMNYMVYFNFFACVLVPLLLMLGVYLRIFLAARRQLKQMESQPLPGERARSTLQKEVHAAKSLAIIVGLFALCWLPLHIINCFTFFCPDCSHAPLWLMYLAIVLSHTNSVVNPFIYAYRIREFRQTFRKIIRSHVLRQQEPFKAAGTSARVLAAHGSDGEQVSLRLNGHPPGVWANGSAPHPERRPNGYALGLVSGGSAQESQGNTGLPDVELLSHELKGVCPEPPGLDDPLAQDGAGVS
Chain of D(3) dopamine receptor (P35462 whole entry): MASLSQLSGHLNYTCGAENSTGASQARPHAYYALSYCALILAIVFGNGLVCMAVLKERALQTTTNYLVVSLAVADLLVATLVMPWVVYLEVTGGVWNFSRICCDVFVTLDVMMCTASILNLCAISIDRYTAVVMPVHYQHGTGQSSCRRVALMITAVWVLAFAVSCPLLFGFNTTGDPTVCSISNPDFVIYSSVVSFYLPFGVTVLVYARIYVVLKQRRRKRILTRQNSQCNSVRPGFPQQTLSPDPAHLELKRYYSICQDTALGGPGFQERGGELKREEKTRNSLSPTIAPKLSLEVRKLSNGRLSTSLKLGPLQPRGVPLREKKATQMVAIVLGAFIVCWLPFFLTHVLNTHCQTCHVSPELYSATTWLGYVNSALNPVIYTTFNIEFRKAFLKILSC
Chain of 3',5'-cyclic-AMP phosphodiesterase 4D (Q08499 whole entry): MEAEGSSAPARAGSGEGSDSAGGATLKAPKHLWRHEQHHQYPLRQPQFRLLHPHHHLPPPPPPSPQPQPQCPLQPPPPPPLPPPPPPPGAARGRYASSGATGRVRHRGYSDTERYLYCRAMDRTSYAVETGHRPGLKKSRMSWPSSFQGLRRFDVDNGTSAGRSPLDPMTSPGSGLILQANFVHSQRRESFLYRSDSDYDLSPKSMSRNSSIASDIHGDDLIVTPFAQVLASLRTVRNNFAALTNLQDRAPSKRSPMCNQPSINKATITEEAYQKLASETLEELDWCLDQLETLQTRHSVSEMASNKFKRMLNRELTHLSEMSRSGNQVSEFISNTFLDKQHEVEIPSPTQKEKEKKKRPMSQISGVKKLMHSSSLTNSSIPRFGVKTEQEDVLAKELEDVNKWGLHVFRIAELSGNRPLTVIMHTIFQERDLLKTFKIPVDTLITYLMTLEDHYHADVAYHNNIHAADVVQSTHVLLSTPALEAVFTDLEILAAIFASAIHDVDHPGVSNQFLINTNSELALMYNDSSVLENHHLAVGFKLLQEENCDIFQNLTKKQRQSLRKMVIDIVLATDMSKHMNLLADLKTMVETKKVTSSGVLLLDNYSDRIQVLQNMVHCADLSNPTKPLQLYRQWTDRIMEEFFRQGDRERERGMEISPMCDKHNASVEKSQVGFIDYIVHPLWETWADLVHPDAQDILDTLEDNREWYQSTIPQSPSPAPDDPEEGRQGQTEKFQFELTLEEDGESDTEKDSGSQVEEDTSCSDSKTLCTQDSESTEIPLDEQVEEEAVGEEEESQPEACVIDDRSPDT
Chain of Sodium-dependent dopamine transporter (Q01959 whole entry): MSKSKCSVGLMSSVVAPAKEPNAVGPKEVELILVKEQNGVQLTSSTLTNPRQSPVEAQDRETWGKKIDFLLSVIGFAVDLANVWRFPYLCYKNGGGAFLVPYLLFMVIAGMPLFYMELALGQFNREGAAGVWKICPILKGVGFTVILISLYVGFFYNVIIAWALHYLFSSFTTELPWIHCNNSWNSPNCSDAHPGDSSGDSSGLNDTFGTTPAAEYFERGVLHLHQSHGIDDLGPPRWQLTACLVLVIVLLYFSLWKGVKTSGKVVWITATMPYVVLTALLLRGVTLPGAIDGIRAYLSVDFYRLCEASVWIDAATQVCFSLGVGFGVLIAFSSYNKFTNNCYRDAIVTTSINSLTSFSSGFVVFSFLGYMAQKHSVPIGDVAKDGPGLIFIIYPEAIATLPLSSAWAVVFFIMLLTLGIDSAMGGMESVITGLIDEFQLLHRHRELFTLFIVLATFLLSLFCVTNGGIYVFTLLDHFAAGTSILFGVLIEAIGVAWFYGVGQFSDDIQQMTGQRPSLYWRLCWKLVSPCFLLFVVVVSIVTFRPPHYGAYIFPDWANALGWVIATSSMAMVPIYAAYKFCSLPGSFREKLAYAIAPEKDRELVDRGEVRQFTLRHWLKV

Row | SMILES | AC50 [1] | AC50 [2] | AC50 [3] | AC50 [4] | AC50 [5] | AC50 [6] | AC50 [7] | AC50 [8] | AC50 [9]
1 | CC[C@@H](CO)NC(=O)[C@@H]1C=C2c3cccc4c3c(cn4C)C[C@H]2N(C)C1 [METHYSERGIDE] | > 30 µM | > 10 µM | > 30 µM | > 30 µM | > 30 µM | > 30 µM | > 30 µM | > 30 µM | 0.42 µM
2 | CC(C)[C@H](N)C(=O)OCCOCn1cnc2c(=O)[nH]c(N)nc21 [VALACYCLOVIR] | > 30 µM | > 10 µM | > 30 µM | > 30 µM | > 30 µM | > 30 µM | > 30 µM | > 10 µM | > 10 µM
3 | CC(C)(O/N=C(\C(=O)N[C@@H]1C(=O)N2C(C(=O)[O-])=C(C[n+]3ccccc3)CS[C@H]12)c1csc(N)n1)C(=O)O [CEFTAZIDIME] | > 300 µM | > 300 µM | > 300 µM | > 300 µM | > 300 µM | > 30 µM | > 300 µM | > 300 µM | > 300 µM
4 | C[N+](C)(C)CCOP(=O)(O)OP(=O)([O-])OC[C@H]1O[C@@H](n2ccc(N)nc2=O)[C@H](O)[C@@H]1O [CITICOLINE] |  | > 30 µM |  |  |  |  | > 30 µM |  | > 30 µM
5 | COc1ccccc1OC1(C)OC(=O)c2ccccc2O1 (stereo unspecified) [GUAIMESAL] | > 30 µM |  | > 30 µM | > 30 µM | > 30 µM | > 30 µM |  | > 30 µM | 
6 | CN(CCOc1ccc(CC2SC(=O)NC2=O)cc1)c1ccccn1 (stereo unspecified) [ROSIGLITAZONE] | > 30 µM | > 30 µM | 18 µM | > 30 µM | > 30 µM | > 30 µM | 29 µM | > 30 µM | > 30 µM
7 | CC(C(=O)O)c1ccc2oc(-c3ccc(Cl)cc3)nc2c1 (stereo unspecified) [BENOXAPROFEN] | > 30 µM | > 30 µM | > 30 µM | > 30 µM | > 30 µM | > 30 µM | > 30 µM | > 30 µM | > 30 µM
8 | Cc1nnc(SCC2=C(C(=O)O)N3C(=O)[C@@H](NC(=O)Cn4cnnn4)[C@H]3SC2)s1 [CEFAZOLIN] | > 300 µM | > 300 µM | > 300 µM | > 300 µM | > 300 µM | > 30 µM | > 300 µM | > 300 µM | > 300 µM
9 | Clc1ccc(Cn2c(CN3CCCC3)nc3ccccc32)cc1 [CLEMIZOLE] | > 30 µM | > 10 µM | > 30 µM | > 30 µM | > 30 µM |  | 28 µM | 24 µM | > 30 µM
10 | CNC(=C[N+](=O)[O-])NCCSCc1csc(CN(C)C)n1 [NIZATIDINE] | > 10 µM | > 10 µM | > 10 µM | > 10 µM |  | > 10 µM | > 30 µM | > 10 µM | > 30 µM
11 | Cc1onc(-c2c(F)cccc2Cl)c1C(=O)N[C@@H]1C(=O)N2[C@@H]1SC(C)(C)[C@@H]2C(=O)O [FLOXACILLIN] | > 30 µM | > 30 µM | > 30 µM | > 30 µM | > 30 µM |  | > 30 µM | > 30 µM | > 30 µM
12 | CC(C)Cc1ccc([C@H](C)C(=O)O)cc1 [DEXIBUPROFEN] | > 30 µM | > 30 µM | > 30 µM | > 30 µM | > 30 µM |  | > 30 µM | > 30 µM | > 30 µM
13 | S=P(N1CC1)(N1CC1)N1CC1 [THIOTEPA] | > 30 µM | > 30 µM | > 30 µM | > 30 µM | > 30 µM |  | > 30 µM | 27 µM | 9.9 µM
14 | CCOc1cc([C@@H](CS(C)(=O)=O)N2C(=O)c3cccc(NC(C)=O)c3C2=O)ccc1OC | > 30 µM | > 30 µM | > 30 µM | > 30 µM | > 30 µM |  |  | > 30 µM | > 30 µM
15 | CCCc1cc(=O)[nH]c(=S)[nH]1 [PROPYLTHIOURACIL] | > 10 µM | > 10 µM | > 10 µM | > 10 µM |  | > 10 µM | > 30 µM | > 10 µM | > 30 µM
16 | CNC[C@H](O)c1ccc(O)c(O)c1 [EPINEPHRINE] | > 30 µM |  | > 30 µM | > 30 µM | > 30 µM |  | > 30 µM | > 30 µM | 8.4 µM
17 | COc1cc(C(C)=O)ccc1OCCCN1CCC(c2noc3cc(F)ccc23)CC1 [ILOPERIDONE] | > 30 µM | > 30 µM | > 30 µM | > 30 µM | > 30 µM |  | > 30 µM | 5.95 µM | 0.0373 µM
18 | COc1cc(C(=O)NS(=O)(=O)c2ccccc2C)ccc1Cc1cn(C)c2ccc(NC(=O)OC3CCCC3)cc12 [ZAFIRLUKAST] | > 30 µM |  | > 10 µM | > 10 µM |  | > 10 µM | 5.4 µM | > 10 µM | 
19 | CN1Cc2c(N)cccc2C(c2ccccc2)C1 (stereo unspecified) [NOMIFENSINE] | > 30 µM | > 30 µM | > 30 µM | > 30 µM | > 30 µM | > 30 µM | > 30 µM |  | > 30 µM
20 | CC=CC1=C(C(=O)O)N2C(=O)[C@@H](NC(=O)[C@H](N)c3ccc(O)cc3)[C@H]2SC1 [CEFPROZIL] | > 30 µM | > 30 µM | > 30 µM | > 30 µM |  | > 30 µM | > 30 µM | > 30 µM | 26 µM
21 | CC(C)NC(=N)NC(=N)Nc1ccc(Cl)c(Cl)c1 [CHLORPROGUANIL] |  | > 30 µM |  |  |  |  | > 30 µM |  | > 30 µM
22 | CC(CN1c2ccccc2Sc2ccccc21)N(C)C (stereo unspecified) [PROMETHAZINE] | > 30 µM |  | > 30 µM | > 30 µM | > 30 µM | > 30 µM | > 30 µM | > 10 µM | 0.28 µM
23 | CC(C)C[C@H](NC(=O)[C@@H](O)[C@H](N)Cc1ccccc1)C(=O)O [UBENIMEX] | > 30 µM | > 30 µM |  |  |  |  | > 30 µM | > 30 µM | > 30 µM
